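Briefly, cells in 96-well plates were exposed to five compound concentrations for 48 h, and endpoints were estimated by linear interpolation. GI50 marks 50% less growth. TGI denotes the concentration required for complete inhibition of growth.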
What was measured:
Assay in all cases: NCI-60 cell line screen, 48 h
UACC-62 melanoma = test system: UACC-62 melanoma
NCI-H522 lung = test system: NCI-H522 lung
UACC-257 melanoma = test system: UACC-257 melanoma
HCC-2998 colon = test system: HCC-2998 colon
BT-549 breast = test system: BT-549 breast
HT29 colon = test system: HT29 colon
OVCAR-5 ovarian = test system: OVCAR-5 ovarian
ACHN renal = test system: ACHN renal
NCI-H226 lung = test system: NCI-H226 lung
MALME-3M melanoma = test system: MALME-3M melanoma
SK-MEL-2 melanoma = test system: SK-MEL-2 melanoma
IGROV1 ovarian = test system: IGROV1 ovarian
SN12C renal = test system: SN12C renal
U251 CNS = test system: U251 CNS
MDA-MB-435 = test system: MDA-MB-435
KM12 colon = test system: KM12 colon
NCI-H23 lung = test system: NCI-H23 lung
DU-145 prostate = test system: DU-145 prostate
T-47D breast = test system: T-47D breast
UO-31 renal = test system: UO-31 renal
RPMI-8226 leukemia = test system: RPMI-8226 leukemia
HOP-62 NSCLC = test system: HOP-62 NSCLC
HL-60(TB) leukemia = test system: HL-60(TB) leukemia
MDA-MB-231 breast = test system: MDA-MB-231 breast
NCI/ADR-RES ovarian = test system: NCI/ADR-RES ovarian
MCF7 breast = test system: MCF7 breast
SK-MEL-5 melanoma = test system: SK-MEL-5 melanoma
OVCAR-4 ovarian = test system: OVCAR-4 ovarian
MDA-MB-468 breast = test system: MDA-MB-468 breast
SK-MEL-28 melanoma = test system: SK-MEL-28 melanoma
HOP-92 NSCLC = test system: HOP-92 NSCLC
LOX IMVI melanoma = test system: LOX IMVI melanoma
SK-OV-3 ovarian = test system: SK-OV-3 ovarian
OVCAR-3 ovarian = test system: OVCAR-3 ovarian
COLO 205 colon = test system: COLO 205 colon
HS 578T breast = test system: HS 578T breast
SNB-75 CNS = test system: SNB-75 CNS
CAKI-1 renal = test system: CAKI-1 renal
SF-539 CNS = test system: SF-539 CNS
786-0 renal = test system: 786-0 renal
EKVX NSCLC = test system: EKVX NSCLC
RXF 393 renal = test system: RXF 393 renal
HCT-116 colon = test system: HCT-116 colon
HCT-15 colon = test system: HCT-15 colon
CCRF-CEM leukemia = test system: CCRF-CEM leukemia
NCI-H460 lung = test system: NCI-H460 lung
TK-10 renal = test system: TK-10 renal
SF-268 CNS = test system: SF-268 CNS
MOLT-4 leukemia = test system: MOLT-4 leukemia
OVCAR-8 ovarian = test system: OVCAR-8 ovarian
SW-620 colon = test system: SW-620 colon
SNB-19 CNS = test system: SNB-19 CNS
K-562 leukemia = test system: K-562 leukemia
A498 renal = test system: A498 renal
SR leukemia = test system: SR leukemia
PC-3 prostate = test system: PC-3 prostate
A549 NSCLC = test system: A549 NSCLC
SF-295 CNS = test system: SF-295 CNS
M14 melanoma = test system: M14 melanoma

Compound `CCCCNC(=S)Nc1ccc(OCc2nc3ccc(Cl)cc3[nH]2)cc1` has a GI50 (UACC-62 melanoma) of 9.83 µM, a TGI (UACC-62 melanoma) of 21.7 µM and a GI50 (NCI-H522 lung) of 3.07 µM. It also gave a TGI (NCI-H522 lung) of 14.8 µM, a GI50 (UACC-257 melanoma) of 11.5 µM and a TGI (UACC-257 melanoma) of 24.1 µM. It also gave a GI50 (HCC-2998 colon) of 4.14 µM, a TGI (HCC-2998 colon) of 17.1 µM and a GI50 (BT-549 breast) of 9.98 µM. The TGI (BT-549 breast) was 22.4 µM, the GI50 (HT29 colon) was 10.7 µM and the TGI (HT29 colon) was 24.6 µM. The GI50 (OVCAR-5 ovarian) was 13 µM, the TGI (OVCAR-5 ovarian) was 25.6 µM and the GI50 (ACHN renal) was 7.74 µM. It also gave a TGI (ACHN renal) of 20.4 µM, a GI50 (NCI-H226 lung) of 9.57 µM and a TGI (NCI-H226 lung) of 26.4 µM. It also gave a GI50 (MALME-3M melanoma) of 11.6 µM, a TGI (MALME-3M melanoma) of 23.9 µM and a GI50 (SK-MEL-2 melanoma) of 13.1 µM. It also gave a TGI (SK-MEL-2 melanoma) of 26.3 µM, a GI50 (IGROV1 ovarian) of 5.3 µM and a TGI (IGROV1 ovarian) of 18.5 µM. The GI50 (SN12C renal) was 10.5 µM, the TGI (SN12C renal) was 22.9 µM and the GI50 (U251 CNS) was 13.1 µM. The TGI (U251 CNS) was 26.4 µM, the GI50 (MDA-MB-435) was 10.1 µM and the TGI (MDA-MB-435) was 22.2 µM. It also gave a GI50 (KM12 colon) of 14 µM, a TGI (KM12 colon) of 28.9 µM and a GI50 (NCI-H23 lung) of 10.5 µM. It also gave a TGI (NCI-H23 lung) of 23.5 µM, a GI50 (DU-145 prostate) of 12.9 µM and a TGI (DU-145 prostate) of 26 µM. For the same compound, the GI50 (T-47D breast) was 6.06 µM, the TGI (T-47D breast) was 20.5 µM and the GI50 (UO-31 renal) was 3.46 µM. For the same compound, the TGI (UO-31 renal) was 16.2 µM, the GI50 (RPMI-8226 leukemia) was 3.83 µM and the TGI (RPMI-8226 leukemia) was 30.3 µM. For the same compound, the GI50 (HOP-62 NSCLC) was 13.9 µM, the TGI (HOP-62 NSCLC) was 27.3 µM and the GI50 (HL-60(TB) leukemia) was 1.8 µM. The TGI (HL-60(TB) leukemia) was 9.66 µM, the GI50 (MDA-MB-231 breast) was 9.9 µM and the TGI (MDA-MB-231 breast) was 22.1 µM. It also gave a GI50 (NCI/ADR-RES ovarian) of 5.73 µM, a TGI (NCI/ADR-RES ovarian) of 23.4 µM and a GI50 (MCF7 breast) of 3.55 µM. The TGI (MCF7 breast) was 18.8 µM, the GI50 (SK-MEL-5 melanoma) was 11.9 µM and the TGI (SK-MEL-5 melanoma) was 24.5 µM. It also gave a GI50 (OVCAR-4 ovarian) of 7.67 µM, a TGI (OVCAR-4 ovarian) of 21.5 µM and a GI50 (MDA-MB-468 breast) of 2.45 µM. For the same compound, the TGI (MDA-MB-468 breast) was 12.4 µM, the GI50 (SK-MEL-28 melanoma) was 14.3 µM and the TGI (SK-MEL-28 melanoma) was 27.5 µM. It also gave a GI50 (HOP-92 NSCLC) of 2.04 µM, a TGI (HOP-92 NSCLC) of 6.43 µM and a GI50 (LOX IMVI melanoma) of 3.41 µM. It also gave a TGI (LOX IMVI melanoma) of 16.2 µM, a GI50 (SK-OV-3 ovarian) of 14.8 µM and a TGI (SK-OV-3 ovarian) of 28.6 µM. For the same compound, the GI50 (OVCAR-3 ovarian) was 4.65 µM, the TGI (OVCAR-3 ovarian) was 19 µM and the GI50 (COLO 205 colon) was 17 µM. For the same compound, the TGI (COLO 205 colon) was 38.1 µM, the GI50 (HS 578T breast) was 10.7 µM and the TGI (HS 578T breast) was 38.6 µM. It also gave a GI50 (SNB-75 CNS) of 3.48 µM, a TGI (SNB-75 CNS) of 18.1 µM and a GI50 (CAKI-1 renal) of 4.42 µM. It also gave a TGI (CAKI-1 renal) of 18.3 µM, a GI50 (SF-539 CNS) of 11.5 µM and a TGI (SF-539 CNS) of 23.6 µM. The GI50 (786-0 renal) was 2.67 µM, the TGI (786-0 renal) was 10.1 µM and the GI50 (EKVX NSCLC) was 7.13 µM. For the same compound, the TGI (EKVX NSCLC) was 20.2 µM, the GI50 (RXF 393 renal) was 3.82 µM and the TGI (RXF 393 renal) was 16.2 µM. The GI50 (HCT-116 colon) was 4.54 µM, the TGI (HCT-116 colon) was 19.7 µM and the GI50 (HCT-15 colon) was 4.59 µM. For the same compound, the TGI (HCT-15 colon) was 17.9 µM, the GI50 (CCRF-CEM leukemia) was 3.16 µM and the TGI (CCRF-CEM leukemia) was 12.4 µM. The GI50 (NCI-H460 lung) was 10.2 µM, the TGI (NCI-H460 lung) was 27.8 µM and the GI50 (TK-10 renal) was 13.1 µM. It also gave a TGI (TK-10 renal) of 26.2 µM, a GI50 (SF-268 CNS) of 12.1 µM and a TGI (SF-268 CNS) of 27.9 µM. The GI50 (MOLT-4 leukemia) was 3.23 µM, the TGI (MOLT-4 leukemia) was 13.3 µM and the GI50 (OVCAR-8 ovarian) was 12.4 µM. It also gave a TGI (OVCAR-8 ovarian) of 25.9 µM, a GI50 (SW-620 colon) of 11.9 µM and a TGI (SW-620 colon) of 30.7 µM. The GI50 (SNB-19 CNS) was 12.8 µM, the TGI (SNB-19 CNS) was 25.4 µM and the GI50 (K-562 leukemia) was 3.41 µM. It also gave a TGI (K-562 leukemia) of over 100 µM, a GI50 (A498 renal) of 12.1 µM and a TGI (A498 renal) of 24.9 µM. The GI50 (SR leukemia) was 2.91 µM, the TGI (SR leukemia) was 17.4 µM and the GI50 (PC-3 prostate) was 3.08 µM. The TGI (PC-3 prostate) was 14.5 µM, the GI50 (A549 NSCLC) was 12.2 µM and the TGI (A549 NSCLC) was 26.7 µM. The GI50 (SF-295 CNS) was 6.92 µM, the TGI (SF-295 CNS) was 20.6 µM and the GI50 (M14 melanoma) was 11.3 µM. For the same compound, the TGI (M14 melanoma) was 26.8 µM.

Reference: PubChem BioAssay (NCI)
